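48-hour exposure; five concentrations; linearly interpolated endpoints. GI50 marks 50% less growth. TGI: concentration producing complete growth inhibition.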 Where a SMILES comes first, the peptide text is derived from it. [ ]: non-standard residue; d: D form. The star is where a group is joined. Bn2Val = CC(C)[C@@H](C(=O)*)N(Cc1ccccc1)Cc1ccccc1; NH(4-Cl-benzyl) = Clc1ccc(CN*)cc1; NMeV = CN[C@H](C(=O)O)C(C)C; dNMeA = CN[C@H](C)C(=O)O
Assays:
Assay in all cases: growth of human tumour cells (NCI), 48 h
A549 NSCLC = test system: A549 NSCLC
DU-145 prostate = test system: DU-145 prostate
HCT-15 colon = test system: HCT-15 colon
MDA-MB-231 breast = test system: MDA-MB-231 breast
NCI-H23 lung = test system: NCI-H23 lung
NCI-H522 lung = test system: NCI-H522 lung
OVCAR-8 ovarian = test system: OVCAR-8 ovarian
SF-268 CNS = test system: SF-268 CNS
SK-MEL-28 melanoma = test system: SK-MEL-28 melanoma
SN12C renal = test system: SN12C renal

Compound | TGI (A549 NSCLC) [µM] | TGI (DU-145 prostate) [µM] | TGI (HCT-15 colon) [µM] | TGI (MDA-MB-231 breast) [µM] | TGI (NCI-H23 lung) [µM] | TGI (NCI-H522 lung) [µM] | TGI (OVCAR-8 ovarian) [µM] | TGI (SF-268 CNS) [µM] | TGI (SK-MEL-28 melanoma) [µM] | TGI (SN12C renal) [µM] | GI50 (A549 NSCLC) [µM] | GI50 (DU-145 prostate) [µM] | GI50 (HCT-15 colon) [µM] | GI50 (MDA-MB-231 breast) [µM] | GI50 (NCI-H23 lung) [µM] | GI50 (NCI-H522 lung) [µM] | GI50 (OVCAR-8 ovarian) [µM] | GI50 (SF-268 CNS) [µM] | GI50 (SK-MEL-28 melanoma) [µM] | GI50 (SN12C renal) [µM]
Cc1nc(N)c(N2CCN(CN)CC2)c(=O)[nH]1 | > 100 | > 100 | > 100 | > 100 | > 100 | > 100 | > 100 | > 100 | > 100 | > 100 | – | – | – | – | – | – | – | – | – | –
CN(C)/N=N/c1nc2c(c(=O)n(C)c(=O)n2C)n1CC(O)CO (stereo not given) | > 100 | > 100 | > 100 | > 100 | > 100 | > 100 | > 100 | > 100 | > 100 | > 100 | – | – | – | – | – | – | – | – | – | –
CN1C(=O)C(O)C[C@@H]1c1ccccc1 (stereo not given in full) | > 100 | > 100 | > 100 | > 100 | > 100 | > 100 | > 100 | > 100 | > 100 | > 100 | – | – | – | – | – | – | – | – | – | –
Cc1ccc(S(=O)(=O)Nc2nnc(S(N)(=O)=O)s2)cc1 | > 100 | > 100 | > 100 | > 100 | > 100 | > 100 | > 100 | > 100 | > 100 | > 100 | – | – | – | – | – | – | – | – | – | –
COc1cc(C2C3=C(COC3=O)Oc3cc4c(cc32)OCO4)cc(OC)c1O (stereo not given) | > 60.6 | 0.391 | > 100 | > 24.9 | 1.81 | < 0.088 | 1.05 | 26.8 | 89.8 | 23.2 | – | – | – | – | – | – | – | – | – | –
CC(=O)Nc1ccc(OC/C(N)=N/NC(=O)c2ccncc2)cc1 | > 100 | > 100 | > 100 | > 100 | > 100 | > 100 | > 100 | > 100 | > 100 | > 100 | – | – | – | – | – | – | – | – | – | –
Cc1nnc2n1N=C(c1ccc(Cl)cc1Cl)/C(=C/c1ccc(-c3ccc([N+](=O)[O-])cc3Cl)o1)S2 | > 100 | 38.9 | 42.9 | 30.6 | 28.1 | 44.9 | 41.5 | 66.7 | > 100 | 40.9 | 31.7 | 18.7 | 16.9 | 12.2 | 12.5 | 20.9 | 18.1 | 24.3 | 57.3 | 17.8
CCOC(=O)Nn1c(CC#N)nnc1Cc1ccccc1 | > 100 | > 100 | > 100 | > 100 | > 100 | > 100 | > 100 | > 100 | > 100 | > 100 | – | – | – | – | – | – | – | – | – | –
Cn1c(=O)oc2nc(-c3ccccc3)cc(C(F)(F)F)c21 | > 100 | > 100 | > 100 | > 100 | > 100 | > 100 | > 100 | > 100 | > 100 | > 100 | – | – | – | – | – | – | – | – | – | –
CC(C)[C@H](NC(=O)[C@H](C(C)C)N(Cc1ccccc1)Cc1ccccc1)C(=O)N(C)[C@H](C(=O)N1CCC[C@H]1C(=O)N(C)[C@H](C)C(=O)NCc1ccc(Cl)cc1)C(C)C (Bn2Val-V[NMeV]P[dNMeA]-{NH(4-Cl-benzyl)}) | > 100 | > 100 | 41.2 | 11.8 | 28.6 | 4.97 | > 100 | 11.2 | 36.3 | 6.35 | – | – | – | – | – | – | – | – | – | –
COC[C@@H](N=Cc1ccc([N+](=O)[O-])cc1)C(C)C | > 100 | > 100 | > 100 | > 100 | > 100 | > 100 | > 100 | > 100 | > 100 | > 100 | – | – | – | – | – | – | – | – | – | –
CC(C)C(C/C=C1\CC(CO)(COC(=O)C2CCCCC2)OC1=O)C(C)C (stereo not given) | 32 | 26.9 | 38.8 | 36.1 | 40.2 | 31.8 | 35.8 | 33.5 | 33.8 | 31.2 | – | – | – | – | – | – | – | – | – | –
CC(C)(C)CC(C)(C)c1cc(O)c(O)c(CN2CCCCC2)c1 | 30.8 | 30.5 | 15.9 | 32.6 | 29.6 | 23.5 | 33.1 | 25.3 | 32.8 | 30.3 | – | – | – | – | – | – | – | – | – | –
CCc1cc2c(c3c1CCCC3=O)CC1(Cc3ccc(C(=O)OC)cc3C1)C2 (stereo not given) | > 100 | > 100 | > 100 | > 100 | > 100 | > 100 | > 100 | > 100 | > 100 | > 100 | – | – | – | – | – | – | – | – | – | –
CC(Oc1ccccc1Cl)C(=O)NN1C(=O)CSC1c1ccccc1 (stereo not given) | > 100 | > 100 | > 100 | > 100 | > 100 | > 100 | > 100 | > 100 | > 100 | > 100 | – | – | – | – | – | – | – | – | – | –
C=C(C)CC1(O[Si](C)(C)C)C(=O)C(OCC)=C1OCC (stereo not given) | > 100 | > 100 | > 100 | > 100 | > 100 | > 100 | > 100 | > 100 | > 100 | > 100 | – | – | – | – | – | – | – | – | – | –
Cc1cc(OC(=O)NCn2cc(-c3ccccc3)nn2)ccc1Cl | > 100 | > 100 | > 100 | > 100 | > 100 | > 100 | > 100 | > 100 | > 100 | > 100 | – | – | – | – | – | – | – | – | – | –
